{"source": "patent US8383597B2", "about": "“G proteins in tumor growth and angiogenesis” (Cornell Research Foundation, Inc., priority 2006, dated 2013)", "key": {"[1]": {"tested_on": "mouse Gα13", "assay": "Western blot of Gα13 protein level in MEF cells after RNA interference", "format": "cell-based", "conditions": "wild-type MEF cells, siRNA transfection, Western blot (FIG. 3C)", "description": "(§1) RNA Interference: RNA interference was performed with Qiagen's 2-For-Silencing siRNA Duplexes. Cells were plated in 6-well plates the day before transfection. 2.5 μg siRNA were diluted in 100 μL buffer EC-R (Qiagen). 7.5 μL RNAiFect transfection reagent (Qiagen) were added to form complexes. After incubation for 15 minutes at room temperature, the complexes were added to the cells. Two days later, the cells were again transfected with the same amount of siRNA. Cells were assayed after three more days' incubation. The sequences for Gα13 siRNA oligonucleotides were r(GUA CGA CUU UGA AAU UAA A)dTdT (SEQ ID NO: 6) for the sense strand and r(UUU AAU UUC AAA GUC GUA C)dTdC (SEQ ID NO: 7) for the antisense strand. The sequences for the second pair of oligonucleotides used in the interference assay (data not shown) were r(GGG UGA GUC UGU AAA GUA U)dTdT (SEQ ID NO: 8) for the sense strand and r(AUA CUU UAC AGA CUC ACC C)dAdG (SEQ ID NO: 9) for the antisense strand. The control siRNA oligonucleotides were supplied by Qiagen."}, "[2]": {"tested_on": "Gα12", "assay": "Western blot of Gα12 protein level in MEF cells after RNA interference", "format": "cell-based, mouse", "conditions": "siRNA transfected MEF cells, Western blot (FIG. 3C)", "description": "as §1"}, "[3]": {"tested_on": "tubulin", "assay": "Western blot of tubulin protein level in MEF cells after RNA interference", "format": "cell-based, mouse", "conditions": "siRNA transfected MEF cells, Western blot (FIG. 3C)", "description": "as §1"}, "[4]": {"tested_on": "MEF cells", "assay": "Chamber cell migration assay, siRNA-treated MEF cells", "format": "cell-based, mouse", "description": "(§2) Chamber Cell Migration Assay: Cell migration was assayed in Boyden chambers [8.0 μm pore size polyethylene terephthalate membrane, FALCON cell culture insert (Becton-Dickinson)] (Shan et al., Proc Natl Acad Sci USA 102: 3772-3776 (2005); Yang and Huang, J Biol Chem 280: 27130-27137 (2005)). Cells were first trypsinized and counted. Then 5-10×10^4 cells in serum free medium (300 μL) were added to the upper chamber, and 500 μL of appropriate medium with 10% FBS or 20 ng/mL PDGF were added to the lower chamber. Transwells were incubated for 4-6 hours at 37° C. Cells on the inside of the transwell inserts were removed with a cotton swab, and cells on the underside of the insert were fixed and stained. Photographs of three random fields were taken, and the number of cells counted to determine the average number of cells that had transmigrated.\n(§3) RNA Interference: RNA interference was performed with Qiagen's 2-For-Silencing siRNA Duplexes. Cells were plated in 6-well plates the day before transfection. 2.5 μg siRNA were diluted in 100 μL buffer EC-R (Qiagen). 7.5 μL RNAiFect transfection reagent (Qiagen) were added to form complexes. After incubation for 15 minutes at room temperature, the complexes were added to the cells. Two days later, the cells were again transfected with the same amount of siRNA. Cells were assayed after three more days' incubation. […]"}, "[5]": {"tested_on": "MEF cells", "assay": "Wound healing assay, siRNA-treated MEF cells", "format": "cell-based, mouse", "conditions": "PDGF stimulation (FIG. 3E)", "description": "Wound Healing Assay: Wild type and Gα12^−/−Gα13^−/− MEF cells isolated from E8.0 Gα12^−/−Gα13^−/− embryos (Gu et al., Proc Natl Acad Sci USA 99: 9352-9357 (2002)) in Dulbecco's Modified Eagle Medium (DMEM) (Invitrogen) containing 10% FBS were seeded into wells of 24-multiwell plates (Becton-Dickinson) (Shan et al., Proc Natl Acad Sci USA 102: 3772-3776 (2005); Yang and Huang, J Biol Chem 280: 27130-27137 (2005)). After they grew to confluency, wounds were made with sterile pipet tips. Cells were washed with Phosphate Buffered Saline (PBS) and refreshed with medium containing 10% fetal bovine serum (FBS) or 20 ng/mL platelet-derived growth factor (PDGF-BB). After overnight incubation at 37° C., cells were fixed and photographed. MEF cells were transfected with Lipofectamine-2000 (transfection efficiency was 10 to 30%) (Invitrogen).\nas §3"}, "[6]": {"tested_on": "mouse Gα13", "assay": "Western blot of Gα13 protein level in SVEC4-10 endothelial cells after RNA interference", "format": "cell-based", "conditions": "SVEC4-10 cells, Western blot (FIG. 9A)", "description": "as §1"}, "[7]": {"tested_on": "Gα12", "assay": "Western blot of Gα12 protein level in SVEC4-10 endothelial cells after RNA interference", "format": "cell-based, mouse", "conditions": "SVEC4-10 cells, Western blot (FIG. 9A)", "description": "as §1"}, "[8]": {"tested_on": "tubulin", "assay": "Western blot of tubulin protein level in SVEC4-10 endothelial cells after RNA interference", "format": "cell-based, mouse", "conditions": "SVEC4-10 cells, Western blot (FIG. 9A)", "description": "as §1"}, "[9]": {"tested_on": "mouse endothelial SVEC4-10 cells", "assay": "Chamber assay of VEGF-induced migration of SVEC4-10 endothelial cells", "format": "cell-based", "conditions": "chamber assay (FIG. 9B)", "description": "as §2, with “Then 5-10×10^4 cells in serum free medium (300 μL) were added to the upper chamber, and 500 μL of appropriate medium with 10% FBS or 20 ng/mL PDGF were added to the lower chamber.” left out\nas §1, with “The sequences for the second pair of oligonucleotides used in the interference assay (data not shown) were r(GGG UGA GUC UGU AAA GUA U)dTdT (SEQ ID NO: 8) for the sense strand and r(AUA CUU UAC AGA CUC ACC C)dAdG (SEQ ID NO: 9) for the antisense strand. The control siRNA oligonucleotides were supplied by Qiagen.” left out"}}, "note": "“Also recorded” adds a separate entry of the source. d = 2'-deoxy (DNA); r = 2'-OH (RNA)", "data": [{"substance": "r(GUA CGA CUU UGA AAU UAA A)dTdT (sense GUACGACUUUGAAAUUAAATT; antisense UUUAAUUUCAAAGUCGUACTC; siRNA; sugars from the 5' end r19 d2, backbone not given here) [Gα13 siRNA, siRNA duplex against mouse Gα13]", "values": [{"measurement": "level of endogenous mouse Gα13 protein", "setting": "[1]", "result": "significantly reduced"}, {"measurement": "protein level of Gα12", "setting": "[2]", "result": "not changed"}, {"measurement": "protein level of tubulin", "setting": "[3]", "result": "not changed"}, {"measurement": "cell migratory response to PDGF stimulation, chamber assay", "setting": "[4]; PDGF stimulation (FIG. 3D)", "result": "defective cell migratory response"}, {"measurement": "migration of cells without PDGF, compared with control RNAi", "setting": "[4]; without PDGF (or other stimuli), data not shown", "result": "not significantly different"}, {"measurement": "cell migratory response to PDGF stimulation, wound-healing assay", "setting": "[5]", "result": "defective cell migratory response; also recorded: reduced"}, {"measurement": "endogenous mouse Gα13 protein level", "setting": "[6]", "result": "reduced"}, {"measurement": "protein level of Gα12", "setting": "[7]", "result": "no effect"}, {"measurement": "protein level of tubulin", "setting": "[8]", "result": "no effect"}, {"measurement": "VEGF-induced endothelial cell migration", "setting": "[9]", "result": "reduced"}]}]}
